Test results as given in patent US7825160B2, “(Biphenyl) carboxylic acids and derivatives thereof” (Cellzome Limited, priority 2004, dated 2010).

test system: γ-secretase activity; test: Screening for γ-secretase-modulating activity in SKN neuroblastoma cells carrying APP swedish mutant; format: cell-based; details: read-out: IC50 on the γ-secretase activity, Activity range
Experimental: Screening was carried out using SKN neuroblastoma cells carrying the APP-“swedish mutant” (point mutations at position 595 and 596, numbering based on APP695) grown in DMEM/NUT-mix F12 (HAM) provided by Gibco (cat no. 31330-38) containing 5% Serum/Fe supplemented with 1% non-essential amino acids, 100 U/ml Pen/Strep.
Cells were grown to near confluency.
The screening was performed using the assay as described in Citron et al (1997) Nature Medicine 3: 67.
IC50-Values of Selected Compounds of the Invention on the γ-Secretase Activity.

SMILES	IC50
CC(C)c1ccc(COc2cc(CC(=O)O)cc(-c3ccc(C(F)(F)F)cc3)c2)cc1 [II, [5-(4-Isopropyl-benzyloxy)-4′-trifluoromethyl-biphenyl-3-yl]-acetic acid]	1 to 10 µM
CS(=O)(=O)c1ccc(COc2cc(CC(=O)O)cc(-c3ccc(C(F)(F)F)cc3)c2)cc1 [IV, [5-(4-Methanesulfonyl-benzyloxy)-4′-trifluoromethyl-biphenyl-3-yl]-acetic acid]	10 to 100 µM
O=C(O)Cc1cc(OCc2ccccc2C(F)(F)F)cc(-c2ccc(C(F)(F)F)cc2)c1 [L, [4′-Trifluoromethyl-5-(2-trifluoromethyl-benzyloxy)-biphenyl-3-yl]-acetic acid]	1 to 10 µM
O=C(O)Cc1cc(OCCc2ccccc2)cc(-c2ccc(C(F)(F)F)cc2)c1 [LI, (5-Phenethyloxy-4′-trifluoromethyl-biphenyl-3-yl)-acetic acid]	1 to 10 µM
O=C(O)Cc1cc(OCC2CCCCO2)cc(-c2ccc(C(F)(F)F)cc2)c1 (stereo not shown) [LII, [5-(Tetrahydro-pyran-2-ylmethoxy)-4′-trifluoromethyl-biphenyl-3-yl]-acetic acid]	100 to 300 µM
CN(C)C(=O)c1ccc(COc2cc(CC(=O)O)cc(-c3ccc(C(F)(F)F)cc3)c2)cc1 [LIII, [5-(4-Dimethylcarbamoyl-benzyloxy)-4′-trifluoromethyl-biphenyl-3-yl]-acetic acid]	100 to 300 µM
CNC(=O)c1ccc(COc2cc(CC(=O)O)cc(-c3ccc(C(F)(F)F)cc3)c2)cc1 [LIV, [5-(4-Methylcarbamoyl-benzyloxy)-4′-trifluoromethyl-biphenyl-3-yl]-acetic acid]	100 to 300 µM
O=C(O)Cc1cc(OCc2cccc(Cl)c2)cc(-c2ccc(C(F)(F)F)cc2)c1 [LIX, [5-(3-Chloro-benzyloxy)-4′-trifluoromethyl-biphenyl-3-yl]-acetic acid]	1 to 10 µM
O=C(O)Cc1cc(OCc2ccc(C(=O)N3CCCC3)cc2)cc(-c2ccc(C(F)(F)F)cc2)c1 [LV, {5-[4-(Pyrrolidine-1-carbonyl)-benzyloxy]-4′-trifluoromethyl-biphenyl-3-yl}-acetic acid]	10 to 100 µM
O=C(O)Cc1cc(OCc2ccc(S(=O)(=O)N3CCOCC3)cc2)cc(-c2ccc(C(F)(F)F)cc2)c1 [LVI, {5-[4-(Morpholine-4-sulfonyl)-benzyloxy]-4′-trifluoromethyl-biphenyl-3-yl}-acetic acid]	10 to 100 µM
O=C(O)Cc1cc(OCc2ccc(OC(F)(F)F)cc2)cc(-c2ccc(C(F)(F)F)cc2)c1 [LVII, [5-(4-Trifluoromethoxy-benzyloxy)-4′-trifluoromethyl-biphenyl-3-yl]-acetic acid]	1 to 10 µM
O=C(O)Cc1cc(OCc2ccccc2Cl)cc(-c2ccc(C(F)(F)F)cc2)c1 [LVIII, [5-(2-Chloro-benzyloxy)-4′-trifluoromethyl-biphenyl-3-yl]-acetic acid]	1 to 10 µM
Cc1ccc(COc2cc(CC(=O)O)cc(-c3ccc(C(F)(F)F)cc3)c2)cc1 [LX, [5-(4-Methyl-benzyloxy)-4′-trifluoromethyl-biphenyl-3-yl]-acetic acid]	1 to 10 µM
O=C(O)Cc1cc(OCc2ccccc2)cc(-c2ccccc2)c1 [VII, (5-Benzyloxy-biphenyl-3-yl)-acetic acid]	1 to 10 µM
O=C(O)Cc1cc(OCc2ccccc2)cc(-c2cc(C(F)(F)F)cc(C(F)(F)F)c2)c1 [XI, (5-Benzyloxy-3′,5′-bis-trifluoromethyl-biphenyl-3-yl)-acetic acid]	1 to 10 µM
O=C(O)Cc1cc(OCc2ccccc2)cc(-c2ccc(Cl)c(Cl)c2)c1 [XII, (5-Benzyloxy-3′,4′-dichloro-biphenyl-3-yl)-acetic acid]	1 to 10 µM
COc1cccc(-c2cc(CC(=O)O)cc(OCc3ccccc3)c2)c1 [XIV, (5-benzyloxy-3′-methoxy-biphenyl-3-yl)-acetic Acid]	10 to 100 µM
O=C(O)Cc1cc(OCc2ccc(Cl)cc2)cc(-c2ccc(C(F)(F)F)cc2)c1 [XLI, [5-(4-Chloro-benzyloxy)-4′-trifluoromethyl-biphenyl-3-yl]-acetic acid]	1 to 10 µM
Cc1cc(COc2cc(CC(=O)O)cc(-c3ccc(C(F)(F)F)cc3)c2)no1 [XLIII, [5-(5-Methyl-isoxazol-3-ylmethoxy)-4′-trifluoromethyl-biphenyl-3-yl]-acetic acid]	10 to 100 µM
O=C(O)Cc1cc(OCc2cccc(C(F)(F)F)c2)cc(-c2ccc(C(F)(F)F)cc2)c1 [XLIX, [4′-Trifluoromethyl-5-(3-trifluoromethyl-benzyloxy)-biphenyl-3-yl]-acetic acid]	1 to 10 µM
O=C(O)Cc1cc(OCC2CCOCC2)cc(-c2ccc(C(F)(F)F)cc2)c1 [XLV, [5-(Tetrahydro-pyran-4-ylmethoxy)-4′-trifluoromethyl-biphenyl-3-yl]-acetic acid]	10 to 100 µM
O=C(O)Cc1cc(OCc2ccc(C(=O)N3CCOCC3)cc2)cc(-c2ccc(C(F)(F)F)cc2)c1 [XLVIII, {5-[4-(Morpholine-4-carbonyl)-benzyloxy]-4′-trifluoromethyl-biphenyl-3-yl}-acetic acid]	10 to 100 µM

SMILES	IC50
NC(=O)c1cccc(-c2cc(CC(=O)O)cc(OCc3ccccc3)c2)c1 [XV, (5-benzyloxy-3′-carbamoyl-biphenyl-3-yl)-acetic Acid]	10 to 100 µM
O=C(O)Cc1cc(OCc2ccccc2)cc(-c2cccc(O)c2)c1 [XVI, (5-benzyloxy-3′-hydroxy-biphenyl-3-yl)-acetic Acid]	10 to 100 µM
CS(=O)(=O)c1ccc(-c2cc(CC(=O)O)cc(OCc3ccccc3)c2)cc1 [XVII, (5-benzyloxy-4′-methanesulfonyl-biphenyl-3-yl)-acetic Acid]	10 to 100 µM
NS(=O)(=O)c1ccc(-c2cc(CC(=O)O)cc(OCc3ccccc3)c2)cc1 [XVIII, (5-benzyloxy-4′-sulfamoyl-biphenyl-3-yl)-acetic Acid]	10 to 100 µM
O=C(O)Cc1cc(OCc2ccccc2)cc(-c2ccc(F)cc2)c1 [XXII, (5-Benzyloxy-4′-fluoro-biphenyl-3-yl)-acetic acid]	10 to 100 µM
O=C(O)Cc1cc(OCc2ccccc2)cc(-c2ccc(Cl)cc2)c1 [XXIII, (5-Benzyloxy-4′-chloro-biphenyl-3-yl)-acetic acid]	1 to 10 µM
CC(=O)Nc1ccc(-c2cc(CC(=O)O)cc(OCc3ccccc3)c2)cc1 [XXIV, (4′-Acetylamino-5-benzyloxy-biphenyl-3-yl)-acetic acid]	100 to 300 µM
COc1ccc(-c2cc(CC(=O)O)cc(OCc3ccccc3)c2)cc1 [XXIX, (5-Benzyloxy-4′-methoxy-biphenyl-3-yl)-acetic acid]	10 to 100 µM
O=C(O)Cc1cc(OCc2ccccc2)cc(-c2ccc(O)cc2)c1 [XXV, (5-Benzyloxy-4′-hydroxy-biphenyl-3-yl)-acetic acid]	100 to 300 µM
CC(C)Oc1ccc(-c2cc(CC(=O)O)cc(OCc3ccccc3)c2)cc1 [XXVI, (5-Benzyloxy-4′-isopropoxy-biphenyl-3-yl)-acetic acid]	10 to 100 µM
O=C(O)Cc1cc(OCc2ccccc2)cc(-c2cc(F)cc(F)c2)c1 [XXVII, (5-Benzyloxy-3′,5′-difluoro-biphenyl-3-yl)-acetic acid]	10 to 100 µM
CC(C)Oc1cccc(-c2cc(CC(=O)O)cc(OCc3ccccc3)c2)c1 [XXVIII, (5-Benzyloxy-3′-isopropoxy-biphenyl-3-yl)-acetic acid]	10 to 100 µM
COc1ccccc1-c1cc(CC(=O)O)cc(OCc2ccccc2)c1 [XXX, (5-Benzyloxy-2′-methoxy-biphenyl-3-yl)-acetic acid]	10 to 100 µM
Cc1ccccc1-c1cc(CC(=O)O)cc(OCc2ccccc2)c1 [XXXI, (5-Benzyloxy-2′-methyl-biphenyl-3-yl)-acetic acid]	10 to 100 µM
Cc1cccc(-c2cc(CC(=O)O)cc(OCc3ccccc3)c2)c1 [XXXII, (5-Benzyloxy-3′-methyl-biphenyl-3-yl)-acetic acid]	10 to 100 µM
O=C(O)Cc1cc(OCc2ccccc2)cc(-c2cccc(C(F)(F)F)c2)c1 [XXXIII, (5-Benzyloxy-3′-trifluoromethyl-biphenyl-3-yl)-acetic acid]	10 to 100 µM
O=C(O)Cc1cc(OCc2ccccc2)cc(-c2ccccc2F)c1 [XXXIV, (5-Benzyloxy-2′-fluoro-biphenyl-3-yl)-acetic acid]	10 to 100 µM
Cc1ccc(-c2cc(CC(=O)O)cc(OCc3ccccc3)c2)cc1 [XXXV, (5-Benzyloxy-4′-methyl-biphenyl-3-yl)-acetic acid]	10 to 100 µM
O=C(O)Cc1cc(OCc2ccccc2)cc(-c2cccc(F)c2)c1 [XXXVI, (5-Benzyloxy-3′-fluoro-biphenyl-3-yl)-acetic acid]	10 to 100 µM
O=C(O)Cc1cc(OCc2ccccc2)cc(-c2cccc(Cl)c2)c1 [XXXVII, (5-Benzyloxy-3′-chloro-biphenyl-3-yl)-acetic acid]	100 to 300 µM
O=C(O)Cc1cc(OCc2ccccc2)cc(-c2cccc(OC(F)(F)F)c2)c1 [XXXVIII, (5-Benzyloxy-3′-trifluoromethoxy-biphenyl-3-yl)-acetic acid]	1 to 10 µM
